Laboratory results taken from patent US20260207600A1, “METHODS OF TREATMENT WITH MYOSIN MODULATOR” (MYOKARDIA, INC., priority 2019, published 2026).

System: subjects with symptomatic non-obstructive hypertrophic cardiomyopathy (nHCM)
Assay: […]-HCM Phase 2 randomized, double-blind, placebo-controlled, concentration-guided study
Format: in vivo, human
Parameters: Overall KCCQ Summary Score / Clinical KCCQ Summary Score / Change in Overall KCCQ Summary Score, Mean / Change in Clinical KCCQ Summary Score, Mean / Change from Baseline in Overall KCCQ Summary Score, Mean / Change from Baseline in Clinical KCCQ Summary Score, Mean: scale not given here
Conditions: for Composite functional endpoint Type 1, % / Composite functional endpoint Type 2, % / Met composite functional endpoint, either type, %: Combined Subgroup
From the text: This is a Phase 2 trial designed to assess the safety and tolerability of a range of exposures over 16 weeks of treatment in subjects with symptomatic, non-obstructive HCM. All study subjects were required to be diagnosed with non-obstructive HCM, with left ventricular wall thickness either ≥15 mm or ≥13 mm with a family history of HCM, LVEF≥55%, NYHA classifications of Class II or III, and NT-proBNP levels of greater than 300 pg/mL at rest. Baseline characteristics, such as age, weight, gender, pathogenic mutation status, background beta blocker use, NYHA classification and exercise capacity were approximately evenly distributed between active and placebo arms.
This double-blind study enrolled 59 individuals with nHCM (Left ventricular outflow tract gradient<30 mmHg; resting or provoked), NYHA Class II or III, and LVEF≥55%. Subjects were randomized 1:1:1 to one of two target plasma drug concentrations (Group 1: ~200 ng/mL and Group 2: ~ 500 ng/ml) or placebo for 16 weeks, followed by an 8-week washout. […] Predefined criteria, including LVEF (LVEF≤45%), guided study drug discontinuation if indicated. Cardiopulmonary exercise testing was performed at baseline and Week 16 to assess the impact on exercise capacity.
Dose adjustments will be based on PK parameters. Assessments include safety, standardized cardiopulmonary exercise testing (CPET) with measurement of peak oxygen consumption, echocardiography to evaluate left ventricular ejection fraction (LVEF) and parameters of diastolic function, symptoms, quality of life, daily step counts, and NT-proBNP at rest and after exercise. In addition, subjects may consent to hypertrophic cardiomyopathy genotyping and pharmacogenetic sampling.
Cardiac Troponin I levels were evaluated on plasma and serum samples of subjects at baseline and at various time points in the trial (Abbott Architect Stat Troponin-I assay (Ref. 2K41)). Cardiac Troponin T levels were evaluated on plasma and serum samples of subjects at baseline and at various time points in the trial (Roche Elecsys Troponin T hs assay) (Ref. 08469873190) performed on a cobas e 801 analyzer). NT-proBNP levels were evaluated on plasma samples using the Roche Elecsys proBNPII assay (Ref. 07027664190) on a cobas e 801 analyzer.
5 mg QD was used as the starting dose for the study. All subjects in the active treatment groups started on 5 mg QD. […] PK modeling was used to guide blinded dose adjustment at the Week 6 visit, based on the plasma concentrations collected at Week 4. Subjects in the placebo group underwent the same assessments in order to preserve the blind. […] Subjects were instructed to take the drug under fasting conditions, at approximately the same time each day, and with 8 ounces of water.
To achieve the target concentration, if a subject's Week 4 concentration was >450 ng/ml, the subject's dose was decreased to 2.5 mg QD; if Week 4 concentration was 110-450 ng/mL, the dose was maintained at 5 mg QD; and if Week 4 concentration was <110 ng/mL, the dose was increased to 10 mg QD.
Subjects were monitored for adverse events (AE), including high blood plasma concentration, systolic dysfunction, QT prolongation, and LVEF decrease. If any of the following thresholds were hit PK 1000 or more, QTcF 500, or LVEF 45%, the subjects were discontinued on drug. Specifically, high blood plasma concentration was defined as blood plasma concentration greater than or equal to 1000 ng/ml; QT prolongation was defined as QTcF greater than or equal to 500 ms; and LVEF shortening was defined as LVEF less than or equal to 45% (including serious adverse event (SAE) for LVEF less than or equal to 30%).
Efficacy and pharmacodynamics assessments were also made. Resting transthoracic echocardiography measurements were taken at Weeks 4, 8, 12 and 16. Ejection fraction (2-D) and LV frantional shortening were analyzed along with other echocardiographic at baseline measures including measure of diastolic function. […]

[1] = Elevated Troponin subgroup (N = 13), Mean
[2] = Elevated Troponin subgroup, Mean Difference vs Placebo
[3] = ITT, Group 1 ~200 ng/mL (n = 19)
[4] = ITT, Group 2 ~500 ng/mL (n = 21)
[5] = ITT, Week 16, pooled-mavacamten group
[6] = Other subgroup, Mean Difference vs Placebo
[7] = Subgroup with Elevated E/e′ at Baseline, Difference mavacamten vs placebo
[8] = Subgroup with Elevated E/e′ at Baseline, Pooled (n = 14)
[9] = Subgroup with Elevated cTnI at Baseline, Difference mavacamten vs placebo
[10] = Subgroup with Elevated cTnI at Baseline, Pooled (n = 13)
[11] = week 16, pooled-mavacamten group

`CC(C)n1c(=O)cc(N[C@@H](C)c2ccccc2)[nH]c1=O` [mavacamten, (S)-3-Isopropyl-6-((1-phenylethyl)amino)pyrimidine-2, 4(1H,3H)-dione] was tested, and the “participants with a decrease in LVEF to ≤45%” value (5 participants among the 40 receiving active treatment, weeks 11-12) was 12.5%, the “Composite functional endpoint Type 1, %” value (Group 1 ~200 ng/mL (n = 9)) was “(11.1) %” and the “Composite functional endpoint Type 2, %” value (Group 1 ~200 ng/mL (n = 9)) was “(22.2) %”. The “Met composite functional endpoint, either type, %” value (Group 1 ~200 ng/mL (n = 9)) was “(33.3) %”, the “Composite functional endpoint Type 1, %” value (Group 2 ~500 ng/mL (n = 12)) was “(8.3) %” and the “Composite functional endpoint Type 2, %” value (Group 2 ~500 ng/mL (n = 12)) was “(25.0) %”. For the same compound, the “Met composite functional endpoint, either type, %” value (Group 2 ~500 ng/mL (n = 12)) was “(33.3) %”, the “Composite functional endpoint Type 1, %” value (Pooled (n = 21)) was “(9.5) %” and the “Composite functional endpoint Type 2, %” value (Pooled (n = 21)) was “(23.8) %”. The “Met composite functional endpoint, either type, %” value (Pooled (n = 21)) was “(33.3) %”, the “Average Daily Accelerometry Unit” value [1] was 136328 and the “Clinical KCCQ Summary Score” value [1] was 6.891. For the same compound, the “NYHA Class” value [1] was −0.462, the “Overall KCCQ Summary Score” value [1] was 6.410 and the “Peak VO2” value [1] was 1.475 mL/min/kg. The “Serum NT-proBNP” value [1] was -950.462 ng/L, the “Serum Troponin I” value [1] was -0.123 ng/mL and the “Average Daily Accelerometry Unit” value [2] was 350347. The “Clinical KCCQ Summary Score” value [2] was 8.766, the “NYHA Class” value [2] was −0.262 and the “Overall KCCQ Summary Score” value [2] was 1.896. The “Peak VO2” value [2] was 2.695 mL/min/kg, the “Serum NT-proBNP” value [2] was -784.062 ng/L and the “Serum Troponin I” value [2] was -0.083 ng/mL. For the same compound, the “participants achieving the composite functional endpoint” value (ITT, Group 1) was 16%, the “Change in Clinical KCCQ Summary Score, Mean” value [3] was 0.11 and the “Change in LVEDV, Mean” value [3] was 1.15 mL. For the same compound, the “Change in LVEF, Mean” value [3] was −2.30%, the “Change in Lateral e′, Mean” value [3] was 0.34 cm/s and the “Change in NYHA Class, Mean” value [3] was −0.6. For the same compound, the “Change in Overall KCCQ Summary Score, Mean” value [3] was 0.35, the “Change in Peak VO2, Mean” value [3] was 0.36 mL/min/kg and the “Change in Septal e′, Mean” value [3] was 0.64 cm/s. The “NT-proBNP, Geometric mean, percent change” value (from here on “NT-proBNP … percent change”) [3] was −47.1%, the “cTnI, Geometric mean, percent change” value [3] was −23.4% and the “participants achieving the composite functional endpoint” value (ITT, Group 2) was 29%. The “Change in Clinical KCCQ Summary Score, Mean” value [4] was 5.66, the “Change in LVEDV, Mean” value [4] was 6.50 mL and the “Change in LVEF, Mean” value [4] was −5.61%. The “Change in Lateral e′, Mean” value [4] was 1.46 cm/s, the “Change in NYHA Class, Mean” value [4] was −0.3 and the “Change in Overall KCCQ Summary Score, Mean” value [4] was 6.24. The “Change in Peak VO2, Mean” value [4] was 0.12 mL/min/kg, the “Change in Septal e′, Mean” value [4] was 1.60 cm/s and the “NT-proBNP … percent change” value [4] was −57.9%. The “cTnI, Geometric mean, percent change” value [4] was −41.0%, the “Change in Clinical KCCQ Summary Score, Mean” value (ITT, Pooled (n = 40)) was 3.37 and the “Change in LVEDV, Mean” value (ITT, Pooled (n = 40)) was 4.04 mL. For the same compound, the “Change in LVEF, Mean” value (ITT, Pooled (n = 40)) was −4.09%, the “Change in Lateral e′, Mean” value (ITT, Pooled (n = 40)) was 0.94 cm/s and the “Change in NYHA Class, Mean” value (ITT, Pooled (n = 40)) was −0.4. The “Change in Overall KCCQ Summary Score, Mean” value (ITT, Pooled (n = 40)) was 3.82, the “Change in Peak VO2, Mean” value (ITT, Pooled (n = 40)) was 0.22 mL/min/kg and the “Change in Septal e′, Mean” value (ITT, Pooled (n = 40)) was 1.17 cm/s. The “NT-proBNP … percent change” value (ITT, Pooled (n = 40)) was −53.2%, the “cTnI, Geometric mean, percent change” value (ITT, Pooled (n = 40)) was −34.0% and the “cTnI geometric mean difference” value [5] was -0.008 ng/mL. For the same compound, the “cTnI geometric mean, decrease” value [5] was 34%, the “Average Daily Accelerometry Unit” value (Other subgroup (N = 27), Mean) was 82413 and the “Clinical KCCQ Summary Score” value (Other subgroup (N = 27), Mean) was 1.195. For the same compound, the “NYHA Class” value (Other subgroup (N = 27), Mean) was −0.417, the “Overall KCCQ Summary Score” value (Other subgroup (N = 27), Mean) was 2.210 and the “Peak VO2” value (Other subgroup (N = 27), Mean) was -0.530 mL/min/kg. The “Serum NT-proBNP” value (Other subgroup (N = 27), Mean) was -280.667 ng/L, the “Serum Troponin I” value (Other subgroup (N = 27), Mean) was -0.003 ng/mL and the “Average Daily Accelerometry Unit” value [6] was 293157. For the same compound, the “Clinical KCCQ Summary Score” value [6] was −5.964, the “NYHA Class” value [6] was 0.122 and the “Overall KCCQ Summary Score” value [6] was −4.495. The “Peak VO2” value [6] was -1.807 mL/min/kg, the “Serum NT-proBNP” value [6] was -178.513 ng/L and the “Serum Troponin I” value [6] was -0.004 ng/mL. The “Change from Baseline in Clinical KCCQ Summary Score, Mean” value [7] was 4.1, the “Change from Baseline in LVEDVi, Mean” value [7] was 3.9 mL/m^2 and the “Change from Baseline in NT-proBNP, Mean” value [7] was -355 ng/L. The “Change from Baseline in NYHA Class, Mean” value [7] was 0.0, the “Change from Baseline in Overall KCCQ Summary Score, Mean” value [7] was 0.4 and the “Change from Baseline in Peak VO2, Mean” value [7] was 1.9 mL/min/kg. The “Change from Baseline in cTnI, Mean” value [7] was -0.07 ng/mL, the “Change from Baseline in Clinical KCCQ Summary Score, Mean” value [8] was 4.6 and the “Change from Baseline in LVEDVi, Mean” value [8] was 2.8 mL/m^2. The “Change from Baseline in NT-proBNP, Mean” value [8] was -656 ng/L, the “Change from Baseline in NYHA Class, Mean” value [8] was −0.4 and the “Change from Baseline in Overall KCCQ Summary Score, Mean” value [8] was 4.7. The “Change from Baseline in Peak VO2, Mean” value [8] was 1.2 mL/min/kg, the “Change from Baseline in cTnI, Mean” value [8] was -0.09 ng/mL and the “Change from Baseline in Clinical KCCQ Summary Score, Mean” value [9] was 8.8. For the same compound, the “Change from Baseline in LVEDVi, Mean” value [9] was 0.042 mL/m^2, the “Change from Baseline in NT-proBNP, Mean” value [9] was -784 ng/L and the “Change from Baseline in NYHA Class, Mean” value [9] was −0.3. The “Change from Baseline in Overall KCCQ Summary Score, Mean” value [9] was 1.9, the “Change from Baseline in Peak VO2, Mean” value [9] was 2.70 mL/min/kg and the “Change from Baseline in cTnI, Mean” value [9] was -0.083 ng/mL. The “Change from Baseline in Clinical KCCQ Summary Score, Mean” value [10] was 6.9, the “Change from Baseline in LVEDVi, Mean” value [10] was 0.79 mL/m^2 and the “Change from Baseline in NT-proBNP, Mean” value [10] was -951 ng/L. For the same compound, the “Change from Baseline in NYHA Class, Mean” value [10] was −0.5, the “Change from Baseline in Overall KCCQ Summary Score, Mean” value [10] was 6.4 and the “Change from Baseline in Peak VO2, Mean” value [10] was 1.47 mL/min/kg. The “Change from Baseline in cTnI, Mean” value [10] was -0.12 ng/mL, the “subjects with transient ejection fraction reductions below the protocol-defined threshold of 45%” value (active drug arms) was “five” and the “participants achieving the composite functional endpoint” value (combined subgroup (elevated cTnI or E/e′average >14 at baseline), mavacamten-treated) was 33%. For the same compound, the “study subjects in whom cTnI levels remained unchanged” value (elevated cTnI subgroup, week 16 (2 of 13)) was 15.4%, the “study subjects in whom cTnI levels decreased” value (elevated cTnI subgroup, week 16 vs baseline (11 of 13)) was 84.6% and the “Serious adverse events (SAEs), frequency in subjects” value (subjects receiving mavacamten, placebo arm 21%) was 10%. The “percentage change in cardiac troponin I from baseline” value (treated individuals) was 30-80%, the “NT-proBNP geometric mean, decrease” value (week 16, Group 1) was 47% and the “NT-proBNP geometric mean, decrease” value (week 16, Group 2) was 58%. For the same compound, the NT-proBNP geometric mean difference [11] was -435 pg/mL and the “NT-proBNP geometric mean, decrease” value [11] was 53%.
